Measured values as given in patent US20260256792A1, “TREATMENT OF CHRONIC SPONTANEOUS URTICARIA BY ADMINISTERING (R)-2-[3-[4-AMINO-3-(2-FLUORO-4-PHENOXY-PHENYL)PYRAZOLO[3,4-D]PYRIMIDIN-1-YL]PIPERIDINE-1-CARBONYL]-4-METHYL-4-[4-(OXETAN-3-YL)PIPERAZIN-1-YL]PENT-2-ENENITRILE” (priority 2023, published 2026).

System: angioedema in CSU patients
Experiment: Phase 2 CSU study: angioedema activity score over 7 days (AAS7)
Assay type: in vivo, human
Conditions: for Non-responder n (%), AAS7 = 0 / OR (95% CI) for rilzabrutinib vs. placebo, AAS7 = 0 / RRD (%) for rilzabrutinib vs. placebo (95% CI), AAS7 = 0 / Responder n (%), AAS7 = 0: outlier removed
Excerpt: The study comprises a 12 week, randomized, double-blind, placebo-controlled, multi-center, dose-ranging efficacy and safety phase, followed by a 40 week open label extension (OLE) phase (see FIG. 1). The study consists of three phases and an optional OLE phase. […] The weekly angioedema activity score (AAS7) was proposed as a tertiary endpoint. […] Patients were to complete the AAS using the e-diary. The e-diary was to be used once daily on the same time of each day recording of participant's answers to the angioedema activity score over 7 days (AAS7) questionnaire.

[1] = 400 mg BID, Week 12, omalizumab-naïve, angioedema at baseline
[2] = 400 mg QPM, Week 1, ITT, angioedema at baseline
[3] = 400 mg QPM, Week 1, omalizumab-naïve
[4] = 400 mg QPM, Week 1, omalizumab-naïve, angioedema at baseline
[5] = 400 mg QPM, Week 2, ITT, angioedema at baseline
[6] = 400 mg QPM, Week 2, omalizumab-naïve
[7] = 400 mg QPM, Week 2, omalizumab-naïve, angioedema at baseline
[8] = 400 mg QPM, Week 3, ITT, angioedema at baseline
[9] = 400 mg QPM, Week 3, omalizumab-naïve
[10] = 400 mg QPM, Week 3, omalizumab-naïve, angioedema at baseline
[11] = 400 mg QPM, Week 4, ITT, angioedema at baseline
[12] = 400 mg QPM, Week 4, omalizumab-naïve
[13] = 400 mg QPM, Week 4, omalizumab-naïve, angioedema at baseline

SMILES: CC(C)(C=C(C#N)C(=O)N1CCC[C@@H](n2nc(-c3ccc(Oc4ccccc4)cc3F)c3c(N)ncnc32)C1)N1CCN(C2COC2)CC1 [rilzabrutinib, (R)-2-[3-[4-amino-3-(2-fluoro-4-phenoxy-phenyl)pyrazolo[3,4-d]pyrimidin-1-yl]piperidine-1-carbonyl]-4-methyl-4-[4-(oxetan-3-yl)piperazin-1-yl]pent-2-enenitrile]
- AAS7 Change from baseline LS Mean (SE) [1]: −41.53 (4.39)
- AAS7 Post-baseline Mean (SD) [1]: 11.73 (18.07)
- Participants with AAS7 = 0, Responder n (%) [1]: 11 (42.3) n (%)
- patients achieving angioedema score (AAS7) of 0 (400 mg BID, within one week of initiating treatment, omalizumab-naïve): 42.3%
- AAS7 % Change difference for rilzabrutinib vs. placebo LS Mean (95% CI) [2]: −12.18 (−42.38, 18.02) %
- AAS7 % Change from baseline LS Mean (SE) [2]: −32.14 (9.37) %
- AAS7 Change difference for rilzabrutinib vs. placebo LS Mean (95% CI) [2]: −5.18 (−18.04, 7.67)
- AAS7 Change from baseline LS Mean (SE) [2]: −19.68 (3.99)
- AAS7 Post-baseline Mean (SD) [2]: 34.57 (21.50)
- Non-responder n (%), AAS7 = 0 [3]: 24 (64.9) n (%)
- OR (95% CI) for rilzabrutinib vs. placebo, AAS7 = 0 [3]: 1.428
- RRD (%) for rilzabrutinib vs. placebo (95% CI), AAS7 = 0 [3]: 8.1 %
- Responder n (%), AAS7 = 0 [3]: 13 (35.1) n (%)
- AAS7 % Change difference for rilzabrutinib vs. placebo LS Mean (95% CI) [4]: −14.70 (−47.27, 17.88) %
- AAS7 % Change from baseline LS Mean (SE) [4]: −31.74 (9.84) %
- AAS7 = 0, OR (95% CI) for rilzabrutinib vs. placebo [4]: 3.545
- AAS7 = 0, RRD (%) for rilzabrutinib vs. placebo (95% CI) [4]: 9.1 %
- AAS7 Change difference for rilzabrutinib vs. placebo LS Mean (95% CI) [4]: −5.57 (−19.34, 8.21)
- AAS7 Change from baseline LS Mean (SE) [4]: −19.33 (4.16)
- AAS7 Post-baseline Mean (SD) [4]: 34.85 (21.86)
- AAS7 % Change difference for rilzabrutinib vs. placebo LS Mean (95% CI) [5]: 4.26 (−27.23, 35.76) %
- AAS7 Change from baseline LS Mean (SE) [5]: −21.54 (4.19)
- AAS7 Post-baseline Mean (SD) [5]: 32.95 (23.02)
- Non-responder n (%), AAS7 = 0 [6]: 24 (64.9) n (%)
- OR (95% CI) for rilzabrutinib vs. placebo, AAS7 = 0 [6]: 0.875
- RRD (%) for rilzabrutinib vs. placebo (95% CI), AAS7 = 0 [6]: −3.3 %
- Responder n (%), AAS7 = 0 [6]: 13 (35.1) n (%)
- AAS7 % Change difference for rilzabrutinib vs. placebo LS Mean (95% CI) [7]: 0.88 (−32.86, 34.63) %
- AAS7 % Change from baseline LS Mean (SE) [7]: −36.33 (12.38) %
- AAS7 = 0, OR (95% CI) for rilzabrutinib vs. placebo [7]: 0.514
- AAS7 = 0, RRD (%) for rilzabrutinib vs. placebo (95% CI) [7]: −9.2 %
- AAS7 Post-baseline Mean (SD) [7]: 33.25 (23.40)
- AAS7 % Change difference for rilzabrutinib vs. placebo LS Mean (95% CI) [8]: 15.17 (−24.59, 54.94) %
- AAS7 % Change from baseline LS Mean (SE) [8]: −33.35 (14.94) %
- AAS7 Change difference for rilzabrutinib vs. placebo LS Mean (95% CI) [8]: 2.33 (−9.09, 13.74)
- AAS7 Change from baseline LS Mean (SE) [8]: −21.82 (4.29)
- AAS7 Post-baseline Mean (SD) [8]: 32.48 (20.51)
- Non-responder n (%), AAS7 = 0 [9]: 25 (67.6) n (%)
- OR (95% CI) for rilzabrutinib vs. placebo, AAS7 = 0 [9]: 1.041
- RRD (%) for rilzabrutinib vs. placebo (95% CI), AAS7 = 0 [9]: 0.9 %
- Responder n (%), AAS7 = 0 [9]: 12 (32.4) n (%)
- AAS7 % Change difference for rilzabrutinib vs. placebo LS Mean (95% CI) [10]: 14.44 (−28.58, 57.46) %
- AAS7 % Change from baseline LS Mean (SE) [10]: −33.23 (15.73) %
- AAS7 = 0, Non-responder n (%) [10]: 23 (85.2) n (%)
- AAS7 = 0, OR (95% CI) for rilzabrutinib vs. placebo [10]: 0.686
- AAS7 = 0, RRD (%) for rilzabrutinib vs. placebo (95% CI) [10]: −5.0 %
- AAS7 Post-baseline Mean (SD) [10]: 32.60 (20.89)
- Participants with AAS7 = 0, Responder n (%) [10]: 4 (14.8) n (%)
- AAS7 % Change difference for rilzabrutinib vs. placebo LS Mean (95% CI) [11]: −12.88 (−48.34, 22.58) %
- AAS7 % Change from baseline LS Mean (SE) [11]: −49.47 (13.21) %
- AAS7 Change difference for rilzabrutinib vs. placebo LS Mean (95% CI) [11]: −2.68 (−13.70, 8.35)
- AAS7 Change from baseline LS Mean (SE) [11]: −25.28 (4.12)
- AAS7 Post-baseline Mean (SD) [11]: 29.42 (20.30)
- Non-responder n (%), AAS7 = 0 [12]: 23 (62.2) n (%)
- OR (95% CI) for rilzabrutinib vs. placebo, AAS7 = 0 [12]: 0.874
- RRD (%) for rilzabrutinib vs. placebo (95% CI), AAS7 = 0 [12]: −3.0 %
- Responder n (%), AAS7 = 0 [12]: 14 (37.8) n (%)
- AAS7 % Change difference for rilzabrutinib vs. placebo LS Mean (95% CI) [13]: −19.26 (−57.48, 18.97) %
- AAS7 % Change from baseline LS Mean (SE) [13]: −49.19 (13.84) %
